Source: EPA's ToxValDB 9.5 (doi:10.2903/j.efsa.2010.1554)
Values after ≈ are worked out from the molar mass of the structure shown.

How the values were obtained:
[1] = tested on: Apis mellifera; conditions: acute; duration: 48 hours; dermal; mortality
[2] = tested on: Daphnia magna; conditions: chronic/long-term; duration: 21 days; reproduction
[3] = tested on: Colinus virginianus; conditions: acute, oral, mortality
[4] = tested on: Anas platyrhynchos; conditions: for LD50: oral, mortality
[5] = tested on: Canidae; conditions: chronic; duration: 1 years; oral; Dog Other; organ weight
[6] = tested on: Rattus norvegicus; conditions: for NOAEL: reproduction developmental
[7] = tested on: Oncorhynchus mykiss
[8] = tested on: Tagia sp.

In the case of `COc1cc(OC)nc(NC(=O)NS(=O)(=O)c2c(-c3nnn(C)n3)cnn2C)n1` [Azimsulfuron], the LD50 [1] is reported as > 25 µg/piece, the NOEC [2] is reported as 5.4 mg/L and the LD50 ([3]; diet) is reported as > 3150 mg/kg-day. For the same compound, the LD50 [3] was > 2250 mg/kg-day, the LD50 ([4]; acute, unspecified) was > 2250 mg/kg-day and the NOEL ([4]; reproductive) was 172 mg/kg-day. For the same compound, the LD50 ([4]; short-term, feed) was > 2040 mg/kg-day, the NOAEL [5] was 17.9 mg/kg-day and the LD50 ([6]; acute, oral, mortality) was > 5000 mg/kg-day. It also gave an NOAEL ([6]; organ weight) of 9.6 mg/kg-day, an NOAEL ([6]; reproduction) of 76.6 mg/kg-day and an LC50 ([7]; acute, duration: 96 hours, mortality) of 154 µg/mL (≈ 363 µM). For the same compound, the NOEC ([7]; chronic/long-term, duration: 90 days, time to hatch) was 6.3 mg/L, the LC50 ([8]; acute, duration: 14 days, mortality) was > 1000 mg/kg and the NOEC ([8]; chronic/long-term, duration: 56 days, reproduction) was 12.5 mg/kg.
